Laboratory results published in PubChem BioAssay (NCI).
Where “and” joins values, the source holds several entries; their conditions need not be identical. Equal entries are not always repeated.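 In this assay, cells in 96-well plates receive the compound at five concentrations for 48 hours. Endpoints are linearly interpolated between the surrounding concentrations. GI50: concentration for 50% inhibition of growth. TGI denotes the concentration required for complete inhibition of growth.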

Experiments:
Assay in all cases: NCI anticancer screen, dose series, 48 h
786-0 renal = tested on: 786-0 renal
HS 578T breast = tested on: HS 578T breast
NCI-H460 lung = tested on: NCI-H460 lung
SF-268 CNS = tested on: SF-268 CNS
SF-539 CNS = tested on: SF-539 CNS
T-47D breast = tested on: T-47D breast
UACC-257 melanoma = tested on: UACC-257 melanoma
UO-31 renal = tested on: UO-31 renal

Compound | TGI (786-0 renal) | TGI (HS 578T breast) | TGI (NCI-H460 lung) | TGI (SF-268 CNS) | TGI (SF-539 CNS) | TGI (T-47D breast) | TGI (UACC-257 melanoma) | TGI (UO-31 renal) | GI50 (786-0 renal) | GI50 (HS 578T breast) | GI50 (NCI-H460 lung) | GI50 (SF-268 CNS) | GI50 (SF-539 CNS) | GI50 (T-47D breast) [µM] | GI50 (UACC-257 melanoma) | GI50 (UO-31 renal)
COc1cc(COC(=O)N(CC(=O)O)c2ccccc2)c([N+](=O)[O-])cc1OC | > 100 µM | > 100 µM | > 100 µM | > 100 µM | > 100 µM | > 100 µM | > 100 µM | > 100 µM |  |  |  |  |  |  |  | 
COc1ccc(Nc2c3ccccc3nc3ccccc23)cc1 | 16.7 µM | 27.5 µM | 6.2 µM | 19.1 µM | 14.6 µM | 14.3 µM | 14.4 µM | 5.27 µM | 3.85 µM | 5.26 µM | 0.479 µM | 3.63 µM | 2.95 µM | 2.37 | 2.71 µM | 1.21 µM
COc1ccc2c(c1)n([O-])c1ccccc1[n+]2=O | > 100 µM | > 100 µM | > 100 µM and 34.3 µM | > 100 µM and 53.7 µM | > 100 µM and 45.9 µM | > 100 µM and 22.6 µM | > 100 µM and 40.2 µM | 46 µM and 36.6 µM | 43 µM and 21.4 µM | > 100 µM and 30.4 µM | 16.8 µM and 5.54 µM | 31.5 µM and 15.2 µM | 46.5 µM and 17.4 µM |  | 46.5 µM and 17.9 µM | 
N#C/C(=C\NC(=S)c1ccncc1)c1nc2ccccc2s1 | > 100 µM | > 100 µM | > 100 µM | > 100 µM | > 100 µM | > 100 µM | > 100 µM | > 100 µM |  |  |  |  |  |  |  | 
COc1cc(/C=C/C(=O)c2ccc(NC(=O)CN3CCN(c4cc5c(cc4F)c(=O)c(C(=O)O)cn5C4CC4)CC3)cc2)cc(OC)c1OC | 3.19 µM | > 100 µM |  | 20.4 µM | 3.03 µM | > 57 µM | 65.4 µM | 7.78 µM | 0.947 µM | 16.3 µM | 0.497 µM | 1.09 µM | 0.721 µM | 1.67 | 1.42 µM | 1.38 µM
C=C1CC/C=C(\C)C(=O)C[C@@H]2[C@@H]1CC2(C)C | 6.69 µM |  | 12 µM | 52.7 µM | 8.46 µM | 7.8 µM | 16 µM | 7.64 µM |  |  |  |  |  |  |  | 
O=C(/C=C/c1cc([N+](=O)[O-])ccc1Cl)c1ccccc1 | 32 µM | 61.7 µM | 33.7 µM | 43.6 µM | 32.7 µM | > 100 µM | 33.6 µM | 26.4 µM | 15.2 µM | 21.2 µM | 14.1 µM | 16.9 µM | 16.6 µM | 27.9 | 16.2 µM | 11.7 µM
O=C1c2ccccc2C(=O)c2c1ccc(C1C(=O)c3ccccc3C1=O)c2-c1c(C2C(=O)c3ccccc3C2=O)ccc2c1C(=O)c1ccccc1C2=O | > 100 µM | > 100 µM | > 100 µM | > 100 µM | > 100 µM | > 100 µM | > 100 µM | > 100 µM |  |  |  |  |  |  |  | 
NC(=O)c1ccc2nc(-c3ccc(Oc4ccc(Cl)cc4)cc3)[nH]c2c1 | 75 µM and 39.4 µM | 75 µM and 42.6 µM | 75 µM and 32.7 µM | 75 µM and 46.2 µM | 75 µM and 28 µM | > 75 µM and 20.7 µM | 75 µM and 33.5 µM | 75 µM and > 100 µM | 48 µM and 16.1 µM | 24.2 µM and 16.5 µM | 23.4 µM and 14.1 µM | 36.7 µM and 19.2 µM | 27.6 µM and 13 µM |  | 66.7 µM and 18.4 µM | 30 µM and 24.1 µM
Cc1cccc2c(=O)c3c(sc12)c(NCCNCCO)nc1ccccc13 | 3.51 µM | 3.74 µM | 2.64 µM | 3.15 µM | 3.12 µM | 3.13 µM | 3.79 µM | 2.34 µM | 1.83 µM | 1.62 µM | 1.19 µM | 1.54 µM | 1.72 µM | 1.33 | 1.86 µM | 1.09 µM
CSc1ccc(NC(=S)NN(C)C)cc1 | > 10 µM | > 10 µM | > 10 µM | > 10 µM | > 10 µM | > 10 µM | > 10 µM | > 10 µM |  |  |  |  |  |  |  | 
Nc1nc(-c2ccccc2)nc(N)c1N=O | 27.1 µM | > 100 µM | 27.9 µM | 39.2 µM | 19.5 µM | 23.1 µM | 44.3 µM | 29.2 µM | 13.2 µM | 8.14 µM | 8.02 µM | 12.3 µM | 5.69 µM | 4.63 | 8.75 µM | 10 µM
CC(=O)OCC1OC(SC2OC(COC(C)=O)C(OC(C)=O)C(OC(C)=O)C2OC(C)=O)C(OC(C)=O)C(OC(C)=O)C1OC(C)=O (stereo unspecified) | > 100 µM |  | > 100 µM | > 100 µM | > 100 µM | > 100 µM | > 100 µM | > 100 µM |  |  |  |  |  |  |  | 
NC(=O)c1cc(-c2ccc(F)cc2)cc(-c2ccncc2)c1N | > 25 µM | > 23.4 µM | > 25 µM | > 25 µM | > 25 µM | > 25 µM | > 25 µM | > 25 µM | > 25 µM | 5.66 µM | > 25 µM | > 25 µM | > 25 µM | > 25 | > 25 µM | 7.88 µM
COc1cc(O)c(C(=O)/C=C/c2ccc(O)cc2)c(O)c1[C@@H]1C[C@H](CCc2ccc(O)cc2)O[C@H](c2ccc(O)cc2)C1 | 7.1 µM | 16.6 µM | 7.87 µM | 14.7 µM | 7.4 µM | 17.5 µM | 20.2 µM | 14.1 µM | 2.47 µM | 3.34 µM | 3 µM | 3.85 µM | 2.61 µM | 3.12 | 5.47 µM | 3.17 µM
CC(C)CCN=C(N)c1ccc(N2CCN(c3ccc(C(N)=NCCC(C)C)cc3)CC2)cc1 | 38 µM |  | 49.3 µM | > 100 µM |  | 57.9 µM | 82.3 µM | > 100 µM | 6.58 µM |  | 14.5 µM | 33.1 µM |  | 9.54 | 12.9 µM | 39.5 µM
CCn1cc(C(=O)O)c(=O)c2cc3c(cc21)S(=O)(=O)CC3 | > 100 µM | > 100 µM | > 100 µM | > 100 µM | > 100 µM | > 100 µM | > 100 µM | > 100 µM |  |  |  |  |  |  |  | 
